Measurements: PMC5290327, “SC83288 is a clinical development candidate for the treatment of severe malaria” (Nature Communications, 2017)

Assays:
Test in all cases: KINOMEscan
Type in all cases: binding
Settings in all cases: read-out: Remaining enzyme activity
[1] = target: T1, ZAK (Homo sapiens, UniProt Q9NYL2)
T1 construct: purchased Ambit (DiscoverX) KINOMEscan; Cerep
Procedure, shortened: (§1)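 Binding, not activity: the compound competes with an active-site directed ligand on beads for DNA-tagged human kinase. Quantitative PCR of the tag gives the kinase recovered. Single concentration, 10 μM SC81458.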

[2] = target: T2, EPHA8 (Homo sapiens, UniProt P29322)
T2 construct: purchased Ambit (DiscoverX) KINOMEscan; Cerep
Procedure, shortened: as §1

[3] = target: T3, ABL1(H396P) (Homo sapiens, UniProt P00519, H396P)
T3 construct: purchased Ambit (DiscoverX) KINOMEscan; Cerep
Procedure, shortened: as §1

[4] = target: T4, ABL1(F317I) (Homo sapiens, UniProt P00519, F317I)
T4 construct: purchased Ambit (DiscoverX) KINOMEscan; Cerep
Procedure, shortened: as §1

[5] = target: T5, AXL (Homo sapiens, UniProt P30530)
T5 construct: purchased Ambit (DiscoverX) KINOMEscan; Cerep
Procedure, shortened: as §1

[6] = target: T6, NIM1 (Homo sapiens, UniProt Q8IY84)
T6 construct: purchased Ambit (DiscoverX) KINOMEscan; Cerep
Procedure, shortened: as §1

[7] = target: T7, PIK3CA(E545K) (Homo sapiens, UniProt P42336, E545K)
T7 construct: purchased Ambit (DiscoverX) KINOMEscan; Cerep
Procedure, shortened: as §1

[8] = target: T8, EPHA3 (Homo sapiens, UniProt P29320)
T8 construct: purchased Ambit (DiscoverX) KINOMEscan; Cerep
Procedure, shortened: as §1

[9] = target: T9, RET(V804M) (Homo sapiens, UniProt P07949, V804M)
T9 construct: purchased Ambit (DiscoverX) KINOMEscan; Cerep
Procedure, shortened: as §1

[10] = target: T10, ZAP70 (Homo sapiens, UniProt P43403)
T10 construct: purchased Ambit (DiscoverX) KINOMEscan; Cerep
Procedure, shortened: as §1

[11] = target: T11, EPHB2 (Homo sapiens, UniProt P29323)
T11 construct: purchased Ambit (DiscoverX) KINOMEscan; Cerep
Procedure, shortened: as §1

[12] = target: T12, CAMK2d (Homo sapiens, UniProt Q13557)
T12 construct: purchased Ambit (DiscoverX) KINOMEscan; Cerep
Procedure, shortened: as §1

[13] = target: T13, AURKA (Homo sapiens, UniProt O14965)
T13 construct: purchased Ambit (DiscoverX) KINOMEscan; Cerep
Procedure, shortened: as §1

[14] = target: T14, ABL1(T315I) (Homo sapiens, UniProt P00519, T315I)
T14 construct: purchased Ambit (DiscoverX) KINOMEscan; Cerep
Procedure, shortened: as §1

[15] = target: T15, CLK4 (Homo sapiens, UniProt Q9HAZ1)
T15 construct: purchased Ambit (DiscoverX) KINOMEscan; Cerep
Procedure, shortened: as §1

[16] = target: T16, MYO3a (Homo sapiens, UniProt Q8NEV4)
T16 construct: purchased Ambit (DiscoverX) KINOMEscan; Cerep
Procedure, shortened: as §1

[17] = target: T17, NEK1 (Homo sapiens, UniProt Q96PY6)
T17 construct: purchased Ambit (DiscoverX) KINOMEscan; Cerep
Procedure, shortened: as §1

[18] = target: T18, YANK3 (Homo sapiens, UniProt Q86UX6)
T18 construct: purchased Ambit (DiscoverX) KINOMEscan; Cerep
Procedure, shortened: as §1

[19] = target: T19, STK36 (Homo sapiens, UniProt Q9NRP7)
T19 construct: purchased Ambit (DiscoverX) KINOMEscan; Cerep
Procedure, shortened: as §1

[20] = target: T20, PRKCD (Homo sapiens, UniProt Q05655)
T20 construct: purchased Ambit (DiscoverX) KINOMEscan; Cerep
Procedure, shortened: as §1

[21] = target: T21, MELK (Homo sapiens, UniProt Q14680)
T21 construct: purchased Ambit (DiscoverX) KINOMEscan; Cerep
Procedure, shortened: as §1

[22] = target: T22, ACVR1 (Homo sapiens, UniProt Q04771)
T22 construct: purchased Ambit (DiscoverX) KINOMEscan; Cerep
Procedure, shortened: as §1

[23] = target: T23, RPS6KA2(Kin.Dom.1-N-term) (Homo sapiens, UniProt Q15349)
T23 construct: RPS6KA2(Kin.Dom.1-N-term); purchased Ambit (DiscoverX) KINOMEscan; Cerep
Procedure, shortened: as §1

[24] = target: T24, PIM3 (Homo sapiens, UniProt Q86V86)
T24 construct: purchased Ambit (DiscoverX) KINOMEscan; Cerep
Procedure, shortened: as §1

[25] = target: T25, FGFR2 (Homo sapiens, UniProt P21802)
T25 construct: purchased Ambit (DiscoverX) KINOMEscan; Cerep
Procedure, shortened: as §1

[26] = target: T26, FGR (Homo sapiens, UniProt P09769)
T26 construct: purchased Ambit (DiscoverX) KINOMEscan; Cerep
Procedure, shortened: as §1

[27] = target: T27, CSNK2a1 (Homo sapiens, UniProt P68400)
T27 construct: purchased Ambit (DiscoverX) KINOMEscan; Cerep
Procedure, shortened: as §1

[28] = target: T28, EGFR(L858R, T790M) (Homo sapiens, UniProt P00533, L858R/T790M)
T28 construct: purchased Ambit (DiscoverX) KINOMEscan; Cerep
Procedure, shortened: as §1

[29] = target: T29, PIK4Cb (Homo sapiens, UniProt Q9UBF8)
T29 construct: purchased Ambit (DiscoverX) KINOMEscan; Cerep
Procedure, shortened: as §1

[30] = target: T30, JNK3 (Homo sapiens, UniProt P53779)
T30 construct: purchased Ambit (DiscoverX) KINOMEscan; Cerep
Procedure, shortened: as §1

[31] = target: T31, TAK1 (Homo sapiens, UniProt O43318)
T31 construct: purchased Ambit (DiscoverX) KINOMEscan; Cerep
Procedure, shortened: as §1

[32] = target: T32, NDR1 (Homo sapiens, UniProt Q15208)
T32 construct: purchased Ambit (DiscoverX) KINOMEscan; Cerep
Procedure, shortened: as §1

[33] = target: T33, CDK2 (Homo sapiens, UniProt P24941)
T33 construct: purchased Ambit (DiscoverX) KINOMEscan; Cerep
Procedure, shortened: as §1

T12 sequence (Q13557 whole entry): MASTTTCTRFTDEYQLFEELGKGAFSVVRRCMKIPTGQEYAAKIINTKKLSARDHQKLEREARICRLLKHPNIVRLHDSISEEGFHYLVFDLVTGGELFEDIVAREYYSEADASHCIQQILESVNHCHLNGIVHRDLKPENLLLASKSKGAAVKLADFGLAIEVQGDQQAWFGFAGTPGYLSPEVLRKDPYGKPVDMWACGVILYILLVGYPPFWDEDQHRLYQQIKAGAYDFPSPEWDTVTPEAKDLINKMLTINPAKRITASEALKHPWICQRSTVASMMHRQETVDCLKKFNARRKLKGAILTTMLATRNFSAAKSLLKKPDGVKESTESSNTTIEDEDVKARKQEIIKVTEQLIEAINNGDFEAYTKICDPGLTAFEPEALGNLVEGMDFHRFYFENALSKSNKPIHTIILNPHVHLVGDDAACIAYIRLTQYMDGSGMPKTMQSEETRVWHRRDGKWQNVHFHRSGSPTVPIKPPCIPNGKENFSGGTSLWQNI
T15 sequence (Q9HAZ1 whole entry): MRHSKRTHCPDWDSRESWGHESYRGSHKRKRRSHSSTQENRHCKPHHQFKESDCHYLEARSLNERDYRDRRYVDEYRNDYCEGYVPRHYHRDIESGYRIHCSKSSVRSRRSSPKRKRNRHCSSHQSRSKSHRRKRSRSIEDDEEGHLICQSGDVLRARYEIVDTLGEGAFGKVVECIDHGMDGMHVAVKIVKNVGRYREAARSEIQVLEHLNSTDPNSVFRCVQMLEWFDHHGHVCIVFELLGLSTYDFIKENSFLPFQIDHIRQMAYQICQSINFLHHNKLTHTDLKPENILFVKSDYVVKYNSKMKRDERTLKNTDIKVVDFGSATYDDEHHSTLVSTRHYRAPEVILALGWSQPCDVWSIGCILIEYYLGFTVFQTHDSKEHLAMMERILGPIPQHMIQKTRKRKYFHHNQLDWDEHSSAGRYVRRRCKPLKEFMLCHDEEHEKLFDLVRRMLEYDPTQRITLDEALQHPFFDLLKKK
T22 sequence (Q04771 21-509): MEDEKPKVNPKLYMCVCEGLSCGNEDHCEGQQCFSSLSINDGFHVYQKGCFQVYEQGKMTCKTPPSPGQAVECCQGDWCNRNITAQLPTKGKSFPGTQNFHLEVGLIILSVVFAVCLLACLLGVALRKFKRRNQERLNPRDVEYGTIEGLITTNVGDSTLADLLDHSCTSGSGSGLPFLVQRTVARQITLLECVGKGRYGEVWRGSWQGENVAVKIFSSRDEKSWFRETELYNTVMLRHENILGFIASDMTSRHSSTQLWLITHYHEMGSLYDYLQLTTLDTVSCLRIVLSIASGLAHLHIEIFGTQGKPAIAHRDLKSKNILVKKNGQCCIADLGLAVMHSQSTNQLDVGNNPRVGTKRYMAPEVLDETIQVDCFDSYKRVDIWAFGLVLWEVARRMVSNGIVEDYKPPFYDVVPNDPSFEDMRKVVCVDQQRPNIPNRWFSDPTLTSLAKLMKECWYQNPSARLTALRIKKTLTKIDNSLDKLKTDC
T17 sequence (Q96PY6 whole entry): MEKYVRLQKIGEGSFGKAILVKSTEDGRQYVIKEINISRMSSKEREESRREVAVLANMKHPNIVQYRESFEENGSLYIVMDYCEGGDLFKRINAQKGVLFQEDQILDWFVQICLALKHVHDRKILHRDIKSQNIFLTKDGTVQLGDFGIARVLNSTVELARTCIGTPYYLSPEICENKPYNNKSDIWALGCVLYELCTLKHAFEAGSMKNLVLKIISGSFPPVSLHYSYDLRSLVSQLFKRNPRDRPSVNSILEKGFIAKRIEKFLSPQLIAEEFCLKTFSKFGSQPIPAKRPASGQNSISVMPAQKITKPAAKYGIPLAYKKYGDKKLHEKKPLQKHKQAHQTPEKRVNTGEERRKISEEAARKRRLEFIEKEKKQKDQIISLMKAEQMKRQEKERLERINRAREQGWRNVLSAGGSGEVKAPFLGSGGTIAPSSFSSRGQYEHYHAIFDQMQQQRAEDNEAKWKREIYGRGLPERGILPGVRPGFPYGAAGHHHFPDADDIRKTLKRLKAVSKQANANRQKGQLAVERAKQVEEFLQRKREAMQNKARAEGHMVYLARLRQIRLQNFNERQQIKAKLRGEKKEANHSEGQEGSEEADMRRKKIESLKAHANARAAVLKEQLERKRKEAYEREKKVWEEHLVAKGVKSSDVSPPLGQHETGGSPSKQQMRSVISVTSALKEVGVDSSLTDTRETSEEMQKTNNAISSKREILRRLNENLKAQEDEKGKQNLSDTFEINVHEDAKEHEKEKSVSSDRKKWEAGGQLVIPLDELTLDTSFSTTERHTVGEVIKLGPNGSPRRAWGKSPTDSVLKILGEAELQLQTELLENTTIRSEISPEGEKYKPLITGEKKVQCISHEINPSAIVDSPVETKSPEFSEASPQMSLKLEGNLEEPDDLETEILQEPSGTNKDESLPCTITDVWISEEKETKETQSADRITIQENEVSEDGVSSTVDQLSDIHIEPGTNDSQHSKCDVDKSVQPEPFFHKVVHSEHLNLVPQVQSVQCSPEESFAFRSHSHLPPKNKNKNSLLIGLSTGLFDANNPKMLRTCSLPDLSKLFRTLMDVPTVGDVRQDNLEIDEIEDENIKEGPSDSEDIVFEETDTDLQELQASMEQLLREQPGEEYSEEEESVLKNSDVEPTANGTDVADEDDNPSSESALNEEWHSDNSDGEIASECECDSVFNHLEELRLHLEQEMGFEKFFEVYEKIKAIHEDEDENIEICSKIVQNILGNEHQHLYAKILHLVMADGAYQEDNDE
T18 sequence (Q86UX6 whole entry): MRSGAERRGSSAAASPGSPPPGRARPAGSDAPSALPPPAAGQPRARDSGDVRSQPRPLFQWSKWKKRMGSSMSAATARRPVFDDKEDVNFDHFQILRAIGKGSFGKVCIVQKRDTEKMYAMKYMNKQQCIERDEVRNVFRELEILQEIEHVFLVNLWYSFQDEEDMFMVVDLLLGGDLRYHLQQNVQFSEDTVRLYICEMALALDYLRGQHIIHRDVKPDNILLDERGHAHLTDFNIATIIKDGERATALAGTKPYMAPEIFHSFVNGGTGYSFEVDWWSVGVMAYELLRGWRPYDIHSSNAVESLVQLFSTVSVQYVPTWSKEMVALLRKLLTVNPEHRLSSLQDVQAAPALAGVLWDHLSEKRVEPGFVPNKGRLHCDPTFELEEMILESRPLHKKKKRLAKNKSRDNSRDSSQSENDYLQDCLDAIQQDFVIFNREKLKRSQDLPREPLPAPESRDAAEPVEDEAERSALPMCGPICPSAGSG
T20 sequence (Q05655 whole entry): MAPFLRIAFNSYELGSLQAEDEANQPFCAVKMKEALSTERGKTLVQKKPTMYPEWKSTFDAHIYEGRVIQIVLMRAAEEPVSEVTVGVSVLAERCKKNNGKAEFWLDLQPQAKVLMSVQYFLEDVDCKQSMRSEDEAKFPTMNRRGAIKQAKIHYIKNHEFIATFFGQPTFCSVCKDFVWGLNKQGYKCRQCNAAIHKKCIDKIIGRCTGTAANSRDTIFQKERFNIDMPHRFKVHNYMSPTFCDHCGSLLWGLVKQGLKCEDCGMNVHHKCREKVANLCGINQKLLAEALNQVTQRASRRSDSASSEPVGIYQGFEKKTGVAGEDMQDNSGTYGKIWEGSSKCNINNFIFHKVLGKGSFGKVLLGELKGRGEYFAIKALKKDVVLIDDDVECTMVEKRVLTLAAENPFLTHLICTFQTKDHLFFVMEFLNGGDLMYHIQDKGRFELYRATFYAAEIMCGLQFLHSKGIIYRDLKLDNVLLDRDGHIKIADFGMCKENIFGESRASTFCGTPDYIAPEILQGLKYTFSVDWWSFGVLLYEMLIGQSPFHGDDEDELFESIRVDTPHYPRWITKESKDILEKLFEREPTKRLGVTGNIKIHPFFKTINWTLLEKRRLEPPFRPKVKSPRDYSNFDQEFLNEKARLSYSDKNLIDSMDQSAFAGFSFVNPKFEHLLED
T30 sequence (P53779 whole entry): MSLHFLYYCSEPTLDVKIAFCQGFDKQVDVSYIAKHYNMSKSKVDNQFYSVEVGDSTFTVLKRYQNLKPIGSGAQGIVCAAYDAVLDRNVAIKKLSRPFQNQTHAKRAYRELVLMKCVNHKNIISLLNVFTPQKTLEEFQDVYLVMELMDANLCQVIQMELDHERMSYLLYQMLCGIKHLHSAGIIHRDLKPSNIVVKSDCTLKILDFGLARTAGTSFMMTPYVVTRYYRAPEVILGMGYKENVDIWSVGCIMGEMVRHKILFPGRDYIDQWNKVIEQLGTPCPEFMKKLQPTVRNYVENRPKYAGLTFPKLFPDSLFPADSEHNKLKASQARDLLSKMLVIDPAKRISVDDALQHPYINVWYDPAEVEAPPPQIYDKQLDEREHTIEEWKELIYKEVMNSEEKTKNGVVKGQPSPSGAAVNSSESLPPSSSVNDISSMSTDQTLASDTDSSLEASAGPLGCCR
T32 sequence (Q15208 whole entry): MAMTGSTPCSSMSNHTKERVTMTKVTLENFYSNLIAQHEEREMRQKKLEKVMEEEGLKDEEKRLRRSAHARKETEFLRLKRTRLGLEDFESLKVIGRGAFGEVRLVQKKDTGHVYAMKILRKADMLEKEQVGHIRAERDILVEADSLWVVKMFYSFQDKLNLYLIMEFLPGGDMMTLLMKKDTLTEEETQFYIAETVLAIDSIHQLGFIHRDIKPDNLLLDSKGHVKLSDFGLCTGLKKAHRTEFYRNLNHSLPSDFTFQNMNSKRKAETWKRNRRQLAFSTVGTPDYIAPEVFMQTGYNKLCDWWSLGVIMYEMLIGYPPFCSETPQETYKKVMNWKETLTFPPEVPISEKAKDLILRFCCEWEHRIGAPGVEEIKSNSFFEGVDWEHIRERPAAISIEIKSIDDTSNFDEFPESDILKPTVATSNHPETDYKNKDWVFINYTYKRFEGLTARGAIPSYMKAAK

CCCCN1CCN(C(=N)c2cccc(NC(=O)Nc3ccc(S(=O)(=O)NCc4ccc(S(N)(=O)=O)cc4)cc3)c2)CC1 [SC81458, 4-(3-(3-((4-butylpiperazin-1-yl)(imino)methyl)phenyl)ureido)-N-(4-sulfamoylbenzyl) benzenesulfonamide]
remaining binding at 10 µM [1]: 100%
remaining binding at 10 µM [2]: 83%
remaining binding at 10 µM [3]: 100%
remaining binding at 10 µM [4]: 100%
remaining binding at 10 µM [5]: 100%
remaining binding at 10 µM [6]: 100%
remaining binding at 10 µM [7]: 100%
remaining binding at 10 µM [8]: 100%
remaining binding at 10 µM [9]: 100%
remaining binding at 10 µM [10]: 89%
remaining binding at 10 µM [11]: 100%
remaining binding at 10 µM [12]: 90%
remaining binding at 10 µM [13]: 68%
remaining binding at 10 µM [14]: 100%
remaining binding at 10 µM [15]: 92%
remaining binding at 10 µM [16]: 100%
remaining binding at 10 µM [17]: 83%
remaining binding at 10 µM [18]: 97%
remaining binding at 10 µM [19]: 100%
remaining binding at 10 µM [20]: 100%
remaining binding at 10 µM [21]: 100%
remaining binding at 10 µM [22]: 84%
remaining binding at 10 µM [23]: 100%
remaining binding at 10 µM [24]: 100%
remaining binding at 10 µM [25]: 100%
remaining binding at 10 µM [26]: 100%
remaining binding at 10 µM [27]: 62%
remaining binding at 10 µM [28]: 100%
remaining binding at 10 µM [29]: 100%
remaining binding at 10 µM [30]: 100%
remaining binding at 10 µM [31]: 100%
remaining binding at 10 µM [32]: 100%
remaining binding at 10 µM [33]: 100%
